What was measured:
[1] = test system: KPL-4 breast cancer cell line; experiment: Tumor cell proliferation assay (CellTiter-Glo, 72 h), KPL-4; format: cell-based; conditions: KPL4, 72h drug exposure
How it was run: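 KPL-4 cells were treated with compound for 72 h at 37°C. Viability was measured as ATP by CellTiter-Glo luminescence, with a separate t=0 plate read after overnight attachment. A reference compound was run as standard.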

[2] = test system: p-AKT1/2/3-S473 in KPL4 breast tumour cell line; experiment: Cellular p-AKT1/2/3-S473 assay; format: cell-based; conditions: KPL4 breast tumour cell line, 2 hours treatment; read-out: pAKT-S743 median IC50
How it was run: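 KPL4 cells (PIK3CA H1047R, HER2 0/E, hormone independent) were seeded at 60–80% confluency, cultured overnight, then exposed to compound for 2 h at 37 °C. pAKT-S473 and total AKT measured together by MSD Akt Duplex on 20 µg extract; pAKT expressed as % of total AKT, at least duplicate with independent repeats.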

[3] = test system: p-4E-BP1-T70 in KPL4 breast tumour cell line; experiment: Cellular p-4E-BP1-T70 assay; format: cell-based; conditions: 2 hours treatment, read-out: P4EBP1-T70 median IC50
Procedure: The molecular mechanism of action was investigated in a set of experiments to assess the inhibition of the PI3K-AKT-mTOR pathway in responsive cell lines such as KPL4 breast tumour cell line (PIK3CAH1047R, HER20/E and hormone independent). The phospho-substrates of PI3K-AKT-mTOR axis were used as the read-outs to reflect pathway inhibition. Cells were seeded at 60-80% confluency per well in 96-well cell culture plates. After overnight incubation at 37° C. 5% CO2, cells were treated with compounds and vehicle at 37° C. for 2 hours. Thereafter, cells were lysed in 150 μl lysis buffer and the levels of phospho-AKT at T308 and S473 and p-4E-BP1 at T70 sites were determined with the corresponding AlphaScreen® SureFire® assay kits (Perkin Elmer: 4E-BP1 Assay Kit Cat # TRG4E2S10K; Akt 1/2/3 p-Ser 473 #TGRA4S500 and Akt 1/2/3 p-Thr 308 #TGRA3S500 as well as IgG detection Kit #6760617M) as described in the manuals. All measurements where at least done in duplicates and confirmed by independent repetition.

[4] = biological target: His-tagged human recombinant kinase full-length Akt1 (Homo sapiens (Human), UniProt P31749); experiment: Akt1 kinase assay (TR-FRET); format: biochemical; conditions: 10 μM ATP; read-out: Akt1, median IC50
How it was run: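 Full-length His-tagged Akt1 (about 0.05 ng/μl final) preincubated 15 min at 22 °C with compound in 50 mM TRIS/HCl pH 7.5, 5 mM MgCl2, 1 mM DTT, 0.02% Triton X-100; biotinylated peptide substrate. Phosphopeptide detected by TR-FRET (Eu-chelate antibody to streptavidin-XL665) after 1 h at 22 °C.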

MCF7 = experiment: Tumor cell proliferation assay (CellTiter-Glo, 72 h), MCF7; format: cell-based; conditions: Homo sapiens, 72h drug exposure
Procedure: Compounds were tested in a cell-based assay that measures the capacity of the compounds to inhibit tumour cell proliferation following a 72h drug exposure. Cell viability is determined using CellTiter-Glow® (CTG, Promega, cat# G7571/2/3). The CellTiter-Glo® Luminescent Cell Viability Assay is a homogeneous method to determine the number of viable cells in culture. Detection is based on using the luciferase reaction to measure the amount of ATP from viable cells. The amount of ATP in cells correlates with cell viability. Within minutes after a loss of membrane integrity, cells lose the ability to synthesize ATP, and endogenous ATPases destroy any remaining ATP; thus the levels of ATP fall precipitously.
Cells were plated at 3000-5000 cells/well (depending on the cell lines) in 90 μL growth medium on MTPs (Corning; #3603, black plate, clear flat bottom). For each cell line assayed, cells were plated onto a separate plate for determination of […] at t=0 hour and t=72 hour time points. Following overnight incubation at 37° C., chemiluminescence values for the t=0 samples were determined after adding 10 μl medium and 100 μl CTG solution according to manufacture protocol. Plates for the t=72 hour time points were treated with compounds diluted into growth medium at ten times final concentration added in 10 μL to the cell culture plate. Cells were then incubated for 72 hours at 37° C. Chemiluminescence values for the t=72 hour samples were determined. […] Experiments were controlled using a reference compound as standard.

Chain of His-tagged human recombinant kinase full-length Akt1 (P31749 whole entry): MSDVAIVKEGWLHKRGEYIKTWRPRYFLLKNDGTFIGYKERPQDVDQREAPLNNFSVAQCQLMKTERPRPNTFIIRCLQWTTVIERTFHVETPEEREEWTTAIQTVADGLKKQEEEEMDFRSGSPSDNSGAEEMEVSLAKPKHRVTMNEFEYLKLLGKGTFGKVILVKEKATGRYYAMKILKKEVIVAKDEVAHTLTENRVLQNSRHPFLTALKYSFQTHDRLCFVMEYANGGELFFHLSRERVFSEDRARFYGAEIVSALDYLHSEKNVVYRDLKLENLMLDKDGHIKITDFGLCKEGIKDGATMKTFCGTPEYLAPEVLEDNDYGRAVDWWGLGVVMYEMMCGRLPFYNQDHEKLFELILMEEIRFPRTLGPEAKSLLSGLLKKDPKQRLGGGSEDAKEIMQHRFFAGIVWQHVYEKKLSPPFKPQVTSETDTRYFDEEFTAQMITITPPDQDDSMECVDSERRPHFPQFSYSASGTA

IC50 [1] [nM] | IC50 [2] [nM] | IC50 [3] [nM] | IC50 [4] [nM] | IC50 (MCF7) [nM] | SMILES
2100 | 582 | 1960 | – | 1700 | Cc1cc(Cl)cn2c(-c3ccccc3)c(-c3ccc(C4(N)CCC4)cc3)nc12 [Example 2-76]
2100 | 1020 | 3280 | – | 1700 | Cc1cc(Br)cn2c(-c3ccccc3)c(-c3ccc(C4(N)CCC4)cc3)nc12 [Example 2-82]
2500 | 2570 | 8520 | 187 | 2100 | Cc1c(Cl)cn2c(-c3ccccc3)c(-c3ccc(C4(N)CCC4)cc3)nc2c1-c1ccn[nH]1 [Example 2-88]
1900 | 380 | 1400 | 330 | 1700 | Cc1c(-c2ccn[nH]2)cn2c(-c3ccccc3)c(-c3ccc(C4(N)CCC4)cc3)nc2c1C [Example 2-89]
1900 | 225 | 1120 | 69 | 1900 | NC(=O)c1cc(-c2ccn[nH]2)cn2c(-c3ccccc3)c(-c3ccc(C4(N)CCC4)cc3)nc12 [Example 2-98]
300 | 19 | 89 | 14 | 300 | Cc1cc(C(N)=O)cn2c(-c3ccccc3)c(-c3ccc(C4(N)CCC4)cc3)nc12 [Example 2-101]
1900 | 33 | 158 | 106 | 1900 | Cc1cc(-c2cn[nH]c2)cn2c(-c3ccccc3)c(-c3ccc(C4(N)CCC4)cc3)nc12 [Example 2-102]
200 | 230 | 719 | 99 | 200 | Cc1cc(-c2ccn[nH]2)cn2c(-c3ccccc3)c(-c3ccc(C4(N)CCC4)cc3)nc12 [Example 2-103]
300 | 112 | 348 | 175 | 200 | Cc1cc(-c2cccnc2)cn2c(-c3ccccc3)c(-c3ccc(C4(N)CCC4)cc3)nc12 [Example 2-104]
2200 | 669 | 573 | 217 | 1800 | Cc1cc(-c2cc(C)c3nc(-c4ccc(C5(N)CCC5)cc4)c(-c4ccccc4)n3c2)[nH]n1 [Example 2-105]
1700 | 89 | – | 81 | 900 | COc1cc(-c2cn[nH]c2)cn2c(-c3ccccc3)c(-c3ccc(C4(N)CCC4)cc3)nc12 [Example 13-0, 1-{4-[8-methoxy-3-phenyl-6-(1H-pyrazol-4-yl)-imidazo[1,2-a]pyridin-2-yl]-phenyl}-cyclobutylamine]

Further lines, the compound ahead of its results:

SMILES | IC50 [1] [nM] | IC50 [2] [nM] | IC50 [3] [nM] | IC50 [4] [nM] | IC50 (MCF7) [nM]
N#Cc1ccc2nc(-c3ccc(C4(N)CCC4)cc3)c(-c3ccccc3)n2c1 [Example 1-10] | 1600 | 138 | 2030 | 287 | –
Cc1ccc2nc(-c3ccc(C4(N)CCC4)cc3)c(-c3ccccc3)n2c1 [Example 2-7] | 1900 | 487 | 3960 | 203 | –
NC1(c2ccc(-c3nc4cc(F)ccn4c3-c3ccccc3)cc2)CCC1 [Example 2-67] | 1700 | 195 | 2000 | 64 | 1300
Cc1ccn2c(-c3ccccc3)c(-c3ccc(C4(N)CCC4)cc3)nc2c1Cl [Example 2-74] | 1400 | 251 | 1400 | – | 1600
CCOC(=O)c1cc(Br)c2nc(-c3ccc(C4(N)CCC4)cc3)c(-c3ccccc3)n2c1 [Example 2-77] | 8100 | 474 | 1720 | – | 1700
NC1(c2ccc(-c3nc4c(Cl)cc(Cl)cn4c3-c3ccccc3)cc2)CCC1 [Example 2-78] | 1900 | 100 | 1580 | – | 1100
COc1ccn2c(-c3ccccc3)c(-c3ccc(C4(N)CCC4)cc3)nc2c1C#N [Example 2-79] | 900 | 48 | 370 | – | 500
NC1(c2ccc(-c3nc4cc(Cl)c(Cl)cn4c3-c3ccccc3)cc2)CCC1 [Example 2-80] | 2000 | 912 | 1860 | – | 1800
Cc1cc(Br)c2nc(-c3ccc(C4(N)CCC4)cc3)c(-c3ccccc3)n2c1 [Example 2-83] | 1800 | 189 | 615 | – | 2000
Cc1c(Br)cn2c(-c3ccccc3)c(-c3ccc(C4(N)CCC4)cc3)nc2c1C [Example 2-84] | 2200 | 1340 | 3140 | – | 1600
NC1(c2ccc(-c3nc4c(Br)cc(Cl)cn4c3-c3ccccc3)cc2)CCC1 [Example 2-85] | 1900 | 161 | 1800 | 5 | 1400
NC1(c2ccc(-c3nc4c(Br)cc(C(F)(F)F)cn4c3-c3ccccc3)cc2)CCC1 [Example 2-86] | 2000 | 1200 | 2510 | – | 1800
Cc1c(Cl)cn2c(-c3ccccc3)c(-c3ccc(C4(N)CCC4)cc3)nc2c1-c1ccc(F)cc1 [Example 2-87] | 3700 | 7530 | 10000 | – | 2100
COc1cncc(-c2cc(C)cn3c(-c4ccccc4)c(-c4ccc(C5(N)CCC5)cc4)nc23)c1 [Example 2-91] | 2000 | 678 | 1610 | – | 1800
NC(=O)c1cc(Br)cn2c(-c3ccccc3)c(-c3ccc(C4(N)CCC4)cc3)nc12 [Example 2-94] | 1800 | 58 | 292 | – | 1700
NC(=O)c1cc(Br)c2nc(-c3ccc(C4(N)CCC4)cc3)c(-c3ccccc3)n2c1 [Example 2-95] | 400 | 3 | 13 | 11 | 400
NC(=O)c1cc(-c2cn[nH]c2)cn2c(-c3ccccc3)c(-c3ccc(C4(N)CCC4)cc3)nc12 [Example 2-97] | 1900 | 377 | 1590 | 67 | 1800
NC(=O)c1cc(-c2cccnc2)cn2c(-c3ccccc3)c(-c3ccc(C4(N)CCC4)cc3)nc12 [Example 2-99] | 1800 | 93 | 90 | 177 | 1800
Cc1c(C(N)=O)cn2c(-c3ccccc3)c(-c3ccc(C4(N)CCC4)cc3)nc2c1C [Example 2-100] | 900 | 67 | 54 | 201 | 1200
NC1(c2ccc(-c3nc4ccc(-c5cnc[nH]5)cn4c3-c3ccccc3)cc2)CCC1 [Example 2-129] | 1800 | 180 | 2180 | 195 | 300
N#Cc1cc(Cl)c2nc(-c3ccc(C4(N)CCC4)cc3)c(-c3ccccc3)n2c1 [Example 15-0, 2-[4-(1-aminocyclobutyl)phenyl]-8-chloro-3-phenylimidazo[1,2-a]pyridine-6-carbonitrile] | 1300 | 30 | – | 141 | 600

From patent US8975265B2, “Substituted imidazo[1,2-a]pyrimidines and —pyridines” (Bayer Intellectual Property GmbH, priority 2010, dated 2015)
